Data taken from patent US20220323383A1, “SMALL-MOLECULAR ADJUVANTS AND IMPLEMENTATIONS THEREOF” (JAWAHARLAL NEHRU CENTRE FOR ADVANCED SCIENTIFIC RESEARCH, priority 2019, published 2022).
Values joined by “and” are separate entries in the source; they are usually repeats but may differ in a detail not shown here. Equal entries are not always repeated. Where two headings read alike, the source gives them in different places.

What was measured:
Format in all cases: cell-based
[1] = system: A. baumannii R674; assay: Chequerboard combination efficacy of adjuvant with antibiotics
Description: (§1) All the solvents were of reagent grade, which were distilled and dried before its use. All the reagents were purchased from Sigma-Aldrich, Alfa-Aesar, S.D. Fine, Avra and Spectrochem, and were used without further purification. Analytical thin layer chromatography (TLC) was performed on E. Merck TLC plates pre-coated with silica gel 60 F254 and visualization was carried out using UV light and Iodine. Column chromatography was performed on silica gel (60-120 mesh) using different ratio of chloroform and methanol solvent system. Nuclear magnetic resonance spectra were recorded on Bruker (AV-400) 400 MHz spectrometer in deuterated solvents. Mass spectra were obtained using 6538-UHD Accurate mass Q-TOF LC-MS instrument. For optical density measurement during bacteriology experiments, Tecan Infinite Pro series M200 Microplate Reader was used. Bacterial strains, A. baumannii (R674), P. aeruginosa (R590), E. coli (R3336) and K. pneumoniae (R3934) were used for the studies.
(§2) The combination efficacy with antibiotics from different classes and individual antibacterial activity of the synthesized adjuvants was evaluated against the above mentioned MDR and NDM-1 strains of Gram-negative bacteria. All the bacteria were grown in peptone. The bacterial samples were freeze dried and stored at −80° C. 3 μl of these stocks were added to 3 mL of peptone and the culture was grown for 6 h at 37° C. prior to the experiments.
(§3) All synthesized compounds were assayed for their antibacterial activity in combination with antibiotics in a modified chequerboard micro-dilution broth format. Stock solutions were made by serially diluting the compounds using autoclaved millipore water. The bacterial freeze dried stock samples were stored at −80° C. About 3 μL of these stocks were added to about 3 mL of the respective broth and the culture was grown for about 6 h at about 37° C. with prior to the experiments. This 6 h grown culture gives about 10^8 cfu/mL in case of A. baumannii R674, P. aeruginosa R590, E. coli R3336 and K. pneumoniae R3934 which were determined by spread plating method. This 6 h grown culture was diluted to give effective cell concentration of 10^5 cfu/mL, and then used for the chequerboard assay. Adjuvants and antibiotics were serially diluted in two-fold, in sterile millipore water. 25 μL of these serial dilutions of the antibiotics and 25 μL of compounds were added to the wells of 96 well plate followed by the addition of about 150 μL of bacterial solution (˜10^5 cfu/mL). The plates were then incubated at about 37° C., 150 rpm in the incubator and O.D at 600 nm was recorded at 24 h using TECAN (Infinite series, M200 pro) Plate Reader. The wells with similar OD as the media control contained the required concentration of the antibiotic and adjuvant for antibacterial efficacy. The potentiation ability of the adjuvants was determined by calculating the potentiation factor and the Fractional Inhibitory concentration (FIC) index. Fractional Inhibitory Concentration (FIC) is expressed as, FIC=[X]/MICX, where [X] is the lowest inhibitory concentration of antibiotic in the presence of the adjuvant. Whereas FIC index is expressed as, FICI=FICantibiotic+FICadjuvant. The values of FIC index give an insight about the nature of the combination. Potentiation factor which means fold-reduction in the MIC of the antibiotic, when used in combination with the adjuvant was also determined. Potentiation factor=[Minimum inhibitory concentration (MIC) of antibiotic in absence of adjuvant]/[MIC of antibiotic in presence of adjuvant]. […] The combination efficacies of adjuvants with various antibiotics are furnished in Table 1. It should be noted that various other resistant strains of bacteria (Gram-positive and Gram-negative) can be tested with a number of other antibiotics to check the potentiation capacity of the adjuvants.

[2] = system: human RBCs; assay: Haemolytic activity; conditions: concentration at which 50% of human blood cells are lysed; 1 h at 37° C.
Description: Erythrocytes were isolated from freshly drawn, heparanized human blood and re-suspended to 5 vol % in PBS (pH 7.4). In a 96-well microtiter plate, 150 μl of erythrocyte suspension was added to 50 μl of serially diluted compound. Two controls were made, one without compound and other with 50 μl of 1 vol % solution of Triton X-100. The plate was incubated for 1 h at 37° C. The plate was then centrifuged at 3,500 rpm for 5 min, 100 μl of the supernatant from each well was transferred to a fresh 96-well microtiter plate, and A540 was measured. Percentage of hemolysis was determined as (A−A0)/(Atotal−A0)×100, where A is the absorbance of the test well, A0 the absorbance of the negative controls (without compound), and Atotal the absorbance of 100% hemolysis wells (with Triton X-100), all at 540 nm.
Toxicity studies of the compounds were done on freshly drawn human RBCs. Toxicity of the compounds were defined by their HC50 values (Table 2), i.e. the concentration of compound at which 50% of the blood cells are lysed.

[3] = system: A. baumannii R674; assay: Individual antibacterial activity (MIC) of adjuvants; conditions: adjuvant alone; A. baumannii R674
Description: as §2, §3

[4] = system: P. aeruginosa R590; assay: Chequerboard combination efficacy of adjuvant with antibiotics
Description: as §1, §2, §3

[5] = system: P. aeruginosa R590; assay: Individual antibacterial activity (MIC) of adjuvants; conditions: adjuvant alone; P. aeruginosa R590
Description: as §2, §3

[6] = antibiotic Rifampicin, P. aeruginosa R590
[7] = antibiotic Tetracycline, P. aeruginosa R590

| SMILES | FICI ([1]; antibiotic Rifampicin) | MIC of antibiotic in presence of adjuvant ([1]; antibiotic Rifampicin) | Potentiation factor ([1]; antibiotic Rifampicin) | FICI ([1]; antibiotic Tetracycline) | MIC of antibiotic in presence of adjuvant ([1]; antibiotic Tetracycline) | Potentiation factor ([1]; antibiotic Tetracycline) | HC50 [2] | MIC against clinical isolates of bacteria [3] | FICI [4, 6] | MIC of antibiotic in presence of adjuvant [4, 6] | Potentiation factor [4, 6] | FICI [4, 7] | MIC of antibiotic in presence of adjuvant [4, 7] | Potentiation factor [4, 7] | MIC against clinical isolates of bacteria [5] | FICI [4] | MIC of antibiotic in presence of adjuvant [4] |
| --- | --- | --- | --- | --- | --- | --- | --- | --- | --- | --- | --- | --- | --- | --- | --- | --- | --- |
| NCCCN(CCCN)C(=O)Cc1ccccc1.O=C(O)C(F)(F)F.O=C(O)C(F)(F)F [Compound 1, N,N-bis((3-amino)propyl)phenyl ethanamide bis(trifluoroacetate)] | <0.75 | 32 µg/mL | 2 | <0.5 | 64 µg/mL | 2 | >1024 µg/mL | >512 µg/mL | – | – | – | – | – | – | – | – | – |
| NCCCN(CCCN)C(=O)Cc1cccc2ccccc12.O=C(O)C(F)(F)F.O=C(O)C(F)(F)F [Compound 2, N,N-bis((3-amino)propyl)naphthyl ethanamide bis(trifluoroacetate)] | <0.375 | 8 µg/mL | 8 | <0.625 | 64 µg/mL | 2 | >1024 µg/mL | >512 µg/mL | <0.375 | 16 µg/mL | 8 | <0.5 | 64 µg/mL | 4 | >512 µg/mL | – | – |
| NCCCN(CCCN)C(=O)c1ccc(-c2ccccc2)cc1.O=C(O)C(F)(F)F.O=C(O)C(F)(F)F [Compound 3] | <0.5 | 16 µg/mL | 4 | – | >64 µg/mL | <2 | >1024 µg/mL | >512 µg/mL | – | – | 4 | – | – | <4 | >512 µg/mL | <0.5 | 32 µg/mL and >64 µg/mL |
| NCCCN(CCCN)C(=O)CC(c1ccccc1)c1ccccc1.O=C(O)C(F)(F)F.O=C(O)C(F)(F)F [Compound 4, N,N-bis((3-amino)propyl)3,3-diphenyl propanamide bis(trifluoroacetate)] | <0.26 | 1 µg/mL | 64 | <0.5 | 32 µg/mL | 4 | >1024 µg/mL | >512 µg/mL | <0.28 | 4 µg/mL | 32 | <0.5 | 64 µg/mL | 4 | >512 µg/mL | – | – |
